Data taken from patent US8426429B2, “2-amino-quinazoline derivatives useful as inhibitors of β-secretase (BACE)” (Jansssen Pharmaceutica N.V., priority 2004, dated 2013).

Target: T1, β-secretase (BACE) (Homo sapiens, UniProt P56817)
T1 construct: purchased Panvera
Assay: BACE FS1 % Inhibition Assay
Format: biochemical
Protocol: The following reagents were used in this assay: sodium acetate, PEG8000 (Sigma), DMSO, HEPES, FS1 substrate [[…]] […] The FS1-substrate stock solution was prepared in DMSO as a 10 mg/mL solution. The FS1-substrate working solution was prepared by diluting the 10 mg/mL stock solution with substrate assay buffer to a final concentration of 300 μg/mL. The β-secretase (BACE) working solution was prepared by diluting a 0.83 mg/mL BACE stock solution with enzyme assay buffer to a final concentration of 4 μg/mL. Test compounds were dissolved in DMSO to 10 mM. […] The screening procedure for this assay was as follows: 15 μL of BACE working solution was pipetted into each well of a 96-well plate. To each well was then pipetted 2 μL of test compound at the selected concentration. Test compound and BACE were then mixed with a pipettor and incubated for 20 min at room temperature. To each well was then added 10 μL of the FS1 substrate working solution. The plates were then incubated for 1 hour at room temperature. […] The procedure for the blank was as follows. 15 μL of assay buffer was pipetted into each well to be used as a blank control. To each well was then added 2 μL of vehicle and 10 μL of FS1-substrate working solution. The plates were then incubated for 1 hour at room temperature. […] The procedure for the positive control was as follows: 15 μL of BACE working solution was pipetted into each well to be used as a positive control. To each well was then pipetted 2 μL of vehicle. Vehicle and BACE were then mixed with a pipettor and incubated for 20 min at room temperature. To each well was then added 10 μL of the FS1 substrate working solution. The plates were then incubated for 1 hour at room temperature. […] For test compounds, % inhibition was determined at each concentration as follows: [formula]

[1] = 0.3 μM compound, FS1 substrate, 0.3 µM
[2] = 1 μM compound, FS1 substrate, 1 µM

T1 sequence (P56817 46-501): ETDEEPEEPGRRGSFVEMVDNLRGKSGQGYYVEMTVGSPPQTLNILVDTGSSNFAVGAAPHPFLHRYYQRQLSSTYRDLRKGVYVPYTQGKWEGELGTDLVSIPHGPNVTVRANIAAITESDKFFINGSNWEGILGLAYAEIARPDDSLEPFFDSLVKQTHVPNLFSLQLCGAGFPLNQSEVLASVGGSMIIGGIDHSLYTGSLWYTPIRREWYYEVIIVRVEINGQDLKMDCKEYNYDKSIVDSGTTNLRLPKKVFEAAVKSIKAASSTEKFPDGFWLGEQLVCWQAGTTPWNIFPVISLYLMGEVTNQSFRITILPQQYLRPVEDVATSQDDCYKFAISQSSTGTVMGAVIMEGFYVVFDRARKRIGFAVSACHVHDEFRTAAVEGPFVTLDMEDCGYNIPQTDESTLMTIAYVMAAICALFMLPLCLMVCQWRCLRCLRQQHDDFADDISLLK

| SMILES | % Inhibition (FS) (0.3 μM test compound) | % Inhibition (FS) (1 μM test compound) | % Inhibition (FS) (3 μM test compound) | also measured |
| --- | --- | --- | --- | --- |
| COC(=O)[C@@H](COCc1ccccc1)N(C)C(=O)CC[C@@H](C1CCCCC1)N1Cc2cc(Oc3ccccc3)ccc2N=C1N [Compound 779] | – | – | – | % Inhibition (FS) (0.3 μM compound, FS1 substrate): 102%; % Inhibition (FS) (1 μM compound, FS1 substrate): 107%; % Inhibition (FS) (3 μM compound, FS1 substrate): 120% |
| COc1ccccc1-c1ccc2c(c1)CN(CCNC(=O)CN)C(N)=N2 [Compound 490] | <30% | <30% | <30% | – |
| NC1=Nc2ccc(-c3ccccc3Cl)cc2CN1CCNC(=O)C12CC3CC(CC(C3)C1)C2 [Compound 651] | <30% | 51% | 96% | – |
| NC1=Nc2ccc(-c3ccccc3Cl)cc2CN1CCNC(=O)C1CCC1 [Compound 649] | 34% | 65% | 95% | – |
| Cc1ccccc1-c1ccc2c(c1)CN(CCNC(=O)C1CCC1)C(N)=N2 [Compound 656] | 56% | 87% | 104% | – |
| CC(=O)Nc1ccc(C(=O)NCCN2Cc3cc(-c4cccc(CO)c4)ccc3N=C2N)cc1 [Compound 593] | <30% | <30% | <30% | – |
| Cc1cc(C(=O)NCCN2Cc3cc(-c4cccc(C(F)(F)F)c4)ccc3N=C2N)c(C)o1 [Compound 590] | <30% | <30% | <30% | – |
| CN(C(=O)CC(C1CCCCC1)N1Cc2cc(Oc3ccccc3)ccc2N=C1N)C1CCCCC1 (centres unmarked) [Compound 199] | <30% | <30% | 82% | – |
| Cc1ccccc1-c1ccc2c(c1)CN(CCNC(=O)C(C)(C)C)C(N)=N2 [Compound 660] | 63% | 86% | 105% | – |
| CN(C(=O)CC[C@@H](C1CCCCC1)N1Cc2ccc(Oc3ccccc3)cc2N=C1N)C1CCCCC1 [Compound 754] | – | – | – | % Inhibition (FS) (0.3 μM compound, FS1 substrate): 8%; % Inhibition (FS) (1 μM compound, FS1 substrate): 35%; % Inhibition (FS) (3 μM compound, FS1 substrate): 89% |
| CN(C(=O)CC[C@@H](C1CCOCC1)N1Cc2cc(Oc3ccccc3)ccc2N=C1N)[C@H]1CC[C@@H](C(=O)O)CC1 [Compound 748] | – | – | – | % Inhibition (FS) [1]: 20%; % Inhibition (FS) [2]: 71%; % Inhibition (FS) (3 μM compound, FS1 substrate, 3 µM): 97% |
| COC1CCCC(C(=O)NCCN2Cc3cc(C4=CCCC4)ccc3N=C2N)C1 (centres unmarked) [Compound 706] | – | – | – | % Inhibition (FS) (0.3 μM compound, FS1 substrate): <30%; % Inhibition (FS) (1 μM compound, FS1 substrate): <30%; % Inhibition (FS) (3 μM compound, FS1 substrate): <30% |
| NC1=Nc2ccc(-c3cnc4ccccc4c3)cc2CN1CCNC(=O)C1CCCC1 [Compound 671] | – | – | – | % Inhibition (FS) (0.3 μM compound, FS1 substrate): <30%; % Inhibition (FS) (1 μM compound, FS1 substrate): 30%; % Inhibition (FS) (3 μM compound, FS1 substrate): <30% |
| CCCC=Cc1ccc2c(c1)CN(CCNC(=O)c1cc(C)oc1C)C(N)=N2 [Compound 587] | <30% | <30% | <30% | – |
| Cc1cc(C)cc(Sc2ccc3c(c2)CN(Cc2cccc(C(=O)N(C)C4CCCCC4)c2)C(N)=N3)c1 [Compound 409] | <30% | <30% | 72% | – |
| NC1=Nc2ccc(-c3ccccc3F)cc2CN1CCNC(=O)C1CCOCC1 [Compound 687] | – | – | – | % Inhibition (FS) (0.3 μM compound, FS1 substrate): <30%; % Inhibition (FS) (1 μM compound, FS1 substrate): 50%; % Inhibition (FS) (3 μM compound, FS1 substrate): 87% |
| NC1=Nc2ccc(-c3ccccc3)cc2CN1CCNC(=O)C1CCC(C(F)(F)F)CC1 (centres unmarked) [Compound 701] | – | – | – | % Inhibition (FS) (0.3 μM compound, FS1 substrate): <30%; % Inhibition (FS) (1 μM compound, FS1 substrate): <30%; % Inhibition (FS) (3 μM compound, FS1 substrate): 54% |
| NC1=Nc2ccc(-c3ccccc3F)cc2CN1CCNC(=O)C1CCC1 [Compound 642] | 37% | 63% | 96% | – |
| CCCC=Cc1ccc2c(c1)CN(CCNC(=O)C1CCCCC1)C(N)=N2 [Compound 577] | <30% | <30% | <30% | – |
| CCOC(=O)C1CCC(N(C)C(=O)CCC(C2CCCCC2)N2Cc3cc(Oc4ccccc4)ccc3N=C2N)CC1 (centres unmarked) [Compound 763] | – | – | – | % Inhibition (FS) [1]: <30%; % Inhibition (FS) [2]: 84% |
| NC1=Nc2ccc(Oc3ccccc3)cc2CN1C1c2ccccc2-c2c(C(=O)N(C3CCCCC3)C3CCCCC3)cccc21 (centres unmarked) [Compound 147] | – | – | <30% | % Inhibition (FS) (10 μM test compound): 71% |
| COc1cccc(OC)c1Oc1ccc2c(c1)CN(CCC(=O)NC1C3CC4CC(C3)CC1C4)C(N)=N2 (centres unmarked) [Compound 465] | <30% | <30% | <30% | – |
| N#Cc1cccc(C(=O)NCCN2Cc3cc(-c4cncnc4)ccc3N=C2N)c1 [Compound 567] | <30% | <30% | <30% | – |
| CC(C)c1ccccc1Oc1ccc2c(c1)CN(CCC(=O)NC1C3CC4CC(C3)CC1C4)C(N)=N2 (centres unmarked) [Compound 466] | <30% | <30% | 53% | – |
| CCC[C@H](CNC(=O)CCC(C)C)N1Cc2cc(Oc3ccccc3)ccc2N=C1N [Compound 603] | 101% | 114% | 122% | – |

Further lines, with some results ahead:

| % Inhibition (FS) (0.3 μM test compound) | % Inhibition (FS) (1 μM test compound) | % Inhibition (FS) (3 μM test compound) | SMILES | also measured |
| --- | --- | --- | --- | --- |
| <30% | 32% | 36% | CN(C(=O)c1cccc(CN2Cc3cc(Oc4ccc5c(c4)CCCC5)ccc3N=C2N)c1)C1CCCCC1 [Compound 233] | – |
| <30% | <30% | <30% | CCCCCOc1ccc2c(c1)CN(Cc1cccc(C(=O)N(C)C3CCCCC3)c1)C(N)=N2 [Compound 516] | – |
| <30% | <30% | 41% | CC(C)[C@@H](CNC(=O)C1CCCCC1)N1Cc2cc(Oc3ccccc3)ccc2N=C1N [Compound 528] | – |
| <30% | <30% | 46% | NC1=Nc2ccc(Oc3ccccc3)cc2CN1Cc1cccc(CNC(=O)C2CCCCC2)c1 [Compound 306] | – |
| <30% | <30% | 31% | CC(C)(C)C1CCC(C(=O)NCCN2Cc3cc(Oc4ccccc4)ccc3N=C2N)CC1 (centres unmarked) [Compound 184] | – |
| <30% | <30% | 56% | COc1cccc(C(=O)NCCN2Cc3cc(Oc4ccccc4)ccc3N=C2N)c1 [Compound 217] | – |
| <30% | 30% | 84% | CSc1ccccc1-c1ccc2c(c1)CN(CCNC(=O)C1CCCCC1)C(N)=N2 [Compound 540] | – |
| – | – | <30% | NC1=Nc2ccc(Oc3ccccc3)cc2CN1CCNC(=O)C1CC1c1ccccc1 (centres unmarked) [Compound 139] | % Inhibition (FS) (10 μM test compound): 61% |
| <30% | <30% | <30% | CN(C(=O)CCC(CO)N1Cc2cc(Oc3ccccc3)ccc2N=C1N)C1CCCCC1 (centres unmarked) [Compound 557] | – |
| <30% | <30% | <30% | CN(C)Cc1ccccc1-c1ccc2c(c1)CN(Cc1cccc(C(=O)N(C)C3CCCCC3)c1)C(N)=N2 [Compound 172] | – |
| – | – | 106% | CCCC(CCCC(=O)N(C)C1CCCCC1)N1Cc2cc(Oc3ccccc3)ccc2N=C1N (centres unmarked) [Compound 90] | % Inhibition (FS) (10 μM test compound): 124% |
| <30% | <30% | <30% | NC1=Nc2ccc(Oc3ccccc3)cc2CN1Cc1cccc(C(=O)NCCc2ccc(S(N)(=O)=O)cc2)c1 [Compound 188] | – |
| <30% | <30% | <30% | CN(C)c1ccc(C(=O)NCCN2Cc3cc(Oc4ccccc4)ccc3N=C2N)cc1 [Compound 189] | – |
| 32% | <30% | 51% | NC1=Nc2ccc(-c3ccccc3-c3ccccc3)cc2CN1CCNC(=O)C1CCCCC1 [Compound 544] | – |
| 51% | 86% | 101% | CC(C)CC(=O)NCCN1Cc2cc(Oc3ccccc3)ccc2N=C1N [Compound 190] | – |
| <30% | <30% | 56% | NC1=Nc2ccc(-c3ccc(Cl)cc3)cc2CN1CCNC(=O)C1CCCCC1 [Compound 626] | – |
| <30% | <30% | <30% | CN(C)c1ccc(Nc2ccc3c(c2)CN(Cc2cccc(C(=O)N(C)C4CCCCC4)c2)C(N)=N3)cc1 [Compound 438] | – |
| 72% | 94% | 112% | NC1=Nc2ccc(-c3ccccc3Cl)cc2CN1CCNC(=O)C1CCCC1 [Compound 650] | – |
| <30% | <30% | <30% | CC(C)C(CC(=O)N(C(C)C)C1CCCCC1)N1Cc2cc(Oc3ccccc3)ccc2N=C1N (centres unmarked) [Compound 202] | – |
